Assay results as given in patent US10695387B2, “Extracts of microalgae and plants for regulating sebum production” (Cutech SRL, priority 2014, dated 2020).

System: human sebaceous glands (hSGs)
Assay: Ex-vivo culture of human sebaceous glands (hSGs), quantification of sebum content (lipids/proteins) vs control
Type: cell-based
Settings: positive control
Text: All the reported examples are intended to show the modulation of sebum production exerted by the experimental preparations on human hSGs microdissected and cultivated up to day 6. At the end of the culture time, the sebum is extracted and quantified from each experimental group of hSGs and then normalized by the proteins extracted from the residual hSG material (mg lipids/mg proteins). As a result, the biological activity of the tested compounds is inferred by comparing the ratio lipids/proteins of the treated glands with that of the control group.
Using micro-scissors and tweezers, hSGs were isolated from the pilosebaceous units of a scalp skin sample. They were seeded in 24-well plates at the density of 8 hSGs/well and then cultivated in 500 μl of modified William E medium. After 24 hours of culture the viability of the hSGs was assessed by means of resazurine assay. Briefly, each hSGs group was transferred onto a microplate well with 200 μl of 10% resazurin culture medium for 2 hours. During this period the resazurin, a non-fluorescent blue dye, is reduced by living cells to the pink coloured and highly red fluorescent resorufin. At the end of the incubation, the medium was withdrawn and analyzed for the resazurin fluorescence in a plate reader ([…]). The fluorescence signal positively correlates with the hSGs viability. Since the resazurin test is not toxic, the hSGs were then seeded in a 24-well plate and cultivated with the experimental culture media in order to start the treatments. The control received William E medium appropriately modified, while the samples submitted to experimental treatments received the same medium supplemented with experimental extracts. The culture medium was renewed every other day. After six days of organ culture, the viability of the hSGs was again assessed via resazurine assay and then, having attested their good viability, each group of hGSs was collected and analyzed for quantifying the sebum content.
Each hSG group was homogenized in 100 μl of isopropyl alcohol;
the sample was centrifuged at 14,000 G for 5 minutes and then the supernatant (containing the extracted sebum) was collected;
the sebum extract was analyzed in triplicate with a Direct Detect IR Spectrometer (Millipore), which provided the total lipid concentration of the supernatant (mg/ml);
the total lipids of the hSGs was quantified multiplying the supernatant lipid concentration (indention 3) by the volume of isopropyl alcohol adopted for the lipid extraction (indention 1);
the pellet remaining from indention 2 was dried by means of a vacuum dry evaporator and then again homogenized in 50 μl of proteolytic buffer (20 mM Tris/HCl pH 7.5, 150 mM NaCl, 2 mM EDTA, 0.5% Triton X-100, 2 mM DTT, 1% protease inhibitor cocktail);
after an appropriate incubation time, this extractive mixture was centrifuged at 14,000 G for 10 minutes and the supernatant was collected and analyzed in triplicate with a Direct Detect IR Spectrometer (Millipore);
the obtained total protein concentration was multiplied by the extractive volume (indention 5) in order to quantify the total proteins of the hSGs;
the total lipid amount (indention 4), i.e. the amount of sebum, was divided by the total proteins (indention 7) in order to obtain the normalized amount of lipids per mg of proteins (mg of lipids/mg of proteins).
The amounts of normalized lipids obtained from the treated groups, i.e. the sebum produced by each group of hSGs, were expressed in percentages with respect to the value obtained in the control group, in order to point out the regulatory effect performed by the experimental treatment.

COc1cc(CNC(=O)CCCC/C=C/C(C)C)ccc1O [Capsaicin]
Sebum content in hSGs, Average, % ratio of the control group performance (Table 2 experiment, 5 μM): 90.3% | Sebum content in hSGs, Average, % ratio of the control group performance (Table 5 experiment, Amount 0): 68.5% | Sebum content in hSGs, Average, % ratio of the control group performance (Table 6 experiment (different donor), Amount 0): 59.2% | Sebum content in hSGs, Average, % ratio of the control group performance (Table 7 experiment, Amount 0): 97.4% | Sebum content in hSGs, Average, % ratio of the control group performance (Table 8 experiment, Amount 0): 91.9% | Sebum content in hSGs, Average, % ratio of the control group performance (Table 10 experiment, 5 μg/ml): 62.9%
